The results in this text go back to patent publication US8895552B2, “Cyclic amide derivative” (Sumitomo Dainippon Pharma Co., Ltd., priority 2010, dated 2014).

For one assay, the target named is T1, 11βHSD1 (Homo sapiens, UniProt P28845).
T1 construct: host or cells: normal human visceral preadipocytes differentiated to adipocytes
T1 sequence (P28845 whole entry): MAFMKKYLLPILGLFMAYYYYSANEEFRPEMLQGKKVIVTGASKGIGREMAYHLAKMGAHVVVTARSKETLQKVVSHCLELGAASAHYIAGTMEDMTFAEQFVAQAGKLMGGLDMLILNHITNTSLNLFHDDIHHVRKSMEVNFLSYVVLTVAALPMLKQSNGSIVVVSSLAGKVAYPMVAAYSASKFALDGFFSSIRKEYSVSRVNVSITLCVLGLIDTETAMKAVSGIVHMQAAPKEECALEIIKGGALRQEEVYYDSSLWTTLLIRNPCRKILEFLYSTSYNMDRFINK
Kind of assay: Inhibitory activity assay against cortisone reducing activity of cultured human adipocytes. Format: cell-based. The conditions noted are these: differentiated normal human preadipocytes (HPrAD-vis), 100 nM [1,2-3H] cortisone, 37° C., read-out: IC50 against cortisone reducing activity of human adipose cell. The protocol:
Experiment 1: Inhibitory Activity Assay Against Cortisone Reducing Activity of Cultured Human Adipocytes
Normal human preadipocytes (HPrAD-vis, manufactured by Cambrex corporation) were inoculated onto a 48-well cell culture plate, and the differentiation induction was carried out according to Protocol attached to the kit. The medium for the cells on the 9-11 days of the differentiation was changed to D-MEM medium (0.2 ml; manufactured by GIBCO) containing 100 nM [1,2-^3H] cortisone (1 μCi/well, manufactured by Muromachi Yakuhin), 0.5% dimethylsulfoxide and a test compound (for test compound treated group, or dimethylsulfoxide only for the no-test compound treated group). The plate was incubated at 37° C. for 3 hours, and then the whole medium was collected. As a background group, the medium without cell was used. The medium was mixed with ethyl acetate (0.1 ml) in an Eppendorf tube. This mixture was voltexed, and then further centrifuged at 5,000 rpm for one minute at room temperature to separate the ethyl acetate (the upper layer). The ethyl acetate (10 μl) was spotted on an aluminium plate for thin layer chromatography (silica gel 60 angstrom, Merck & Co., Inc., hereinafter referred to as TLC plate). The developing solvent (chloroform/methanol (90:10, v/v)) was put into a sealed vessel, and the TLC plate was developed, and then dried at room temperature. An imaging plate (TR-2040, Fujifilm) was exposed onto the dried TLC plate for 16 hours or more. After the exposure was completed, the imaging plate was analyzed by Bioimage Analyzer (BAS2500, Fujifilm), and the [^3H] radioactivity was measured at the corresponding position of cortisol developed on the TLC plate. The inhibitory activity of a test compound against cortisone reducing activity was calculated according to the following equation. (inhibitory activity(%))=100×((group without test compound)−(group with test compound))/((group without test compound)−(background group))
The IC50 value was calculated by linear regression of logarithmic value of the concentration of test compound and the inhibitory activity value, using the data at 2 points showing around 50% of the inhibitory activity. […] The IC50 value of the following compounds of the present invention against cortisone reducing activity of human adipose cell was determined.
Consider `Cc1cc(C(=O)c2cccn2C)sc1C(=O)NC1C2CC3CC1CC(O)(C3)C2` (stereo not drawn) [Example 11], for which the IC50 stood at 4.3 nM.
Regarding `O=C(c1ccc(C(=O)NC2C3CC4CC2CC(O)(C4)C3)c(Cl)c1)c1ccccc1F` (stereo not drawn) [Example 16], the IC50 was found to be 3.6 nM.
On the same count and under the same terms, for `COCc1cc(C(=O)c2ccccc2)ccc1C(=O)N[C@H]1C2CC3CC1C[C@](O)(C3)C2` [Example 51] the value was less than 3 nM; for `O=C(Cc1ccccc1)c1ccc(C(=O)N[C@H]2C3CC4CC2C[C@](O)(C4)C3)c(Cl)c1` [Example 52], 12 nM.
As to `Cn1cccc1C(=O)c1ccc(C(=O)N[C@H]2C3CC4CC2C[C@](O)(C4)C3)c(Cl)c1` [Example 53], the IC50 amounted to 16 nM.
`Cc1cc(C(=O)c2ccccc2)n(C)c1C(=O)N[C@H]1C2CC3CC1C[C@](O)(C3)C2` [Example 62]: the IC50 is less than 3 nM.
On to `CCc1cc(C(=O)c2ccc(F)cc2)ccc1C(=O)NC1C2CC3CC1CC(O)(C3)C2` (stereo not drawn) [Example 98], for which the IC50 amounted to 3 nM.
With `CCn1nccc1C(=O)c1ccc(C(=O)NC2C3CC4CC2CC(O)(C4)C3)c(COC)c1` (stereo not drawn) [Example 368], the IC50 is 3.7 nM.
With `CCCc1cc(C(=O)c2cccn2C)ccc1C(=O)NC1C2CC3CC1CC(O)(C3)C2` (stereo not drawn) [Example 424], the IC50 was less than 3 nM.
Same read-out and setting: for `COCc1cc(C(=O)c2ccccn2)ccc1C(=O)NC1C2CC3CC1CC(O)(C3)C2` (stereo not drawn) [Example 429] the value was 9.5 nM.
For the molecule `COCc1cc(C(=O)c2ccccc2)n(C)c1C(=O)N[C@H]1C2CC3CC1C[C@](O)(C3)C2` [Example 440, 5-Benzoyl-N-[(E)-5-hydroxyadamantan-2-yl]-3-(methoxymethyl)-1-methyl-1H-pyrrole-2-carboxamide], the IC50 was less than 3 nM.
`COCCc1cc(C(=O)c2ccccc2F)ccc1C(=O)N[C@H]1C2CC3CC1C[C@](O)(C3)C2` [Example 443, 4-(2-Fluorobenzoyl)-N-[(E)-5-hydroxyadamantan-2-yl]-2-(2-methoxyethyl)benzamide]: the IC50 stood at 1.4 nM.
`CCc1cc(C(=O)c2cccc(OC)c2F)n(C)c1C(=O)NC1C2CC3CC1CC(O)(C3)C2` (stereo not drawn) [Example 486]: the IC50 turned out to be 2.8 nM.
In the case of `CCc1cc(C(=O)c2cccc(F)c2F)n(C)c1C(=O)NC1C2CC3CC1CC(O)(C3)C2` (stereo not drawn) [Example 488], the IC50 was determined as 4.2 nM.
Same read-out and setting: for `CCc1cc(C(=O)c2ccc(C)s2)n(C)c1C(=O)NC1C2CC3CC1CC(O)(C3)C2` (stereo not drawn) [Example 499] the value was less than 3 nM; for `CCc1cc(C(=O)C2(c3ccccc3)CCC2)n(C)c1C(=O)NC1C2CC3CC1CC(O)(C3)C2` (stereo not drawn) [Example 504], 7.3 nM.
Consider `Cn1c(C(=O)c2cccc(F)c2)cc(Cl)c1C(=O)NC1C2CC3CC1CC(O)(C3)C2` (stereo not drawn) [Example 515], for which the IC50 stood at 1.5 nM.
On to `Cn1c(C(=O)c2ccc(F)cc2)cc(Cl)c1C(=O)NC1C2CC3CC1CC(O)(C3)C2` (stereo not drawn) [Example 516], for which the concentration for half-maximal inhibition (IC50) was less than 3 nM.

In another assay the target is T2, cortisone reductase (11βHSD1) (Mus musculus, UniProt P50172).
T2 construct: host or cells: primary cells from visceral fat tissue of ICR male mice, differentiated to adipocytes in culture
T2 sequence (P50172 whole entry): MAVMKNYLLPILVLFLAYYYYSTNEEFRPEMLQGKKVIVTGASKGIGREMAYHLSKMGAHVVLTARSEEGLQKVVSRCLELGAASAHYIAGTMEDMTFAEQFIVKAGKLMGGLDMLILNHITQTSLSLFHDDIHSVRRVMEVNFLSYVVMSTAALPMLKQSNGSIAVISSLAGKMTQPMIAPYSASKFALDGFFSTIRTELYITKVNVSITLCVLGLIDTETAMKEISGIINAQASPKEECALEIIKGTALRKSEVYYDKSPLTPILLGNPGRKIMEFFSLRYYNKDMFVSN
Nature of the assay: Inhibitory activity assay against cortisone reductase of mouse primary adipocytes. It is filed as cell-based. The conditions noted are these: differentiated primary adipocytes from visceral fat of ICR male mice, 100 nM [1,2-3H] cortisone, 37° C., read-out: IC50 against cortisone reductase of mouse adipose cell. Here is the method:
Experiment 2: Inhibitory Activity Assay Against Cortisone Reductase of Mouse Primary Adipocytes
The adipose tissues adhered to the mesenterium and around the testicle of ten ICR male mice (9 to 11 weeks old, Japan SLC Inc.) (hereinafter, referred to as visceral fat tissue) were soaked in about 100 mL of a phosphate buffer (0.20 g/L KCl, 0.20 g/L KH2PO4, 8.00 g/L NaCl, 2.16 g/L Na2HPO4.7H2O, 100 unit/ml penicillin (GIBCO), 100 μg/ml streptomycin (GIBCO), 250 ng/ml amphotericin (GIBCO)) and washed at room temperature.
The excised visceral fat tissues was cut finely in about 5×5 mm with scissors in Dulbecco's modified Eagle medium (about 50 ml, containing 4.5 g/L D-glucose and 584 mg/L L-glutamine, GIBCO) to which collagenase (Type II, Sigma), penicillin (GIBCO), streptomycin (GIBCO) and amphotericin (GIBCO) were added in an amount so that the final concentrations thereof are adjusted to 1 mg/ml, 100 unit/ml, 100 μg/ml and 250 ng/ml, respectively. Then, the mixture was shaken at 37° C. for 30 minutes (about 170 rpm), filtered through nylon mesh (80S [the pore size: 250 μm], SANSHIN INDUSTRIAL CO., LTD.), and the filtrate (cell suspension) was collected. This filtrate was centrifuged at 1800 rpm at room temperature for 5 minutes, and then, the liquid layer was removed stilly by decantation to give a precipitate. This precipitate was suspended in Dulbecco's modified Eagle medium (30 ml, containing 4.5 g/L D-glucose and 584 mg/L L-glutamine, GIBCO; hereinafter, occasionally referred to as FBS-containing medium), to which fetal bovine serum (hereinafter referred to as FBS, GIBCO), ascorbic acid (Wako Pure Chemical Industries, Ltd.), penicillin (GIBCO), streptomycin (GIBCO) and amphotericin (GIBCO) are added thereto in an amount so that the final concentrations thereof were adjusted to 10%, 200 μM, 100 units/ml, 100 μg/ml and 250 ng/ml, respectively, and then the suspension was filtered through a nylon mesh (420S [pore size: 25 μm], SANSHIN INDUSTRIAL CO., LTD.). The filtrate was collected, and centrifuged at 1800 rpm at room temperature for 5 minutes. The liquid layer was removed stilly by decantation, and the precipitate was suspended again in the FBS-containing medium (30 ml). This suspension was treated by the same procedure (centrifugation, removal of liquid layer, suspension in FBS-containing medium) two times more, and the suspension (90 ml) was prepared. This suspension was put into cell culture flasks (T150, for adhered cell culture, Iwaki Glass) in a each volume of 30 ml, and incubated at 37° C. in the presence of 5% CO2. At 5 to 6 hours after starting incubation, the medium was removed, and the wall of the flask was washed with the above-mentioned phosphate buffer (15 ml). The washing liquid was removed, and the washing procedure was repeated again, and the phosphate buffer was removed. To the flask was added FBS-containing medium (30 ml), and the mixture was incubated at 37° C. in the presence of 5% CO2. On Day 1 or Day 2 after the culture started, the medium was removed, and the wall of the flask was washed with the phosphate buffer (15 ml) once. To the flask was added a trypsin-ethylenediamine tetraacetate (hereinafter, referred to as trypsin-EDTA) solution (0.05% trypsin, 0.53 mM EDTA.4Na, GIBCO) in such a volume that the cells are duly soaked, and the mixture was allowed to stand at 37° C. for 5 minutes. To this mixture was added the FBS-containing medium in about 10-times volume of that of the trypsin-EDTA solution, and then the cell suspension was obtained.
The cells in the cell suspension were counted with a counting chamber, and the cell suspension was diluted with the FBS-containing medium so that the concentration of the cell was adjusted to 1.4×10^5 cells/ml. Thus obtained cell dilution was put into a 48-well plate (for adherent cell culture, Iwaki Glass) in an amount of 300 μl per well, and the plate was incubated at 37° C. in the presence of 5% CO2 for 1 to 2 day(s). […]
Turning to `Cc1cc(C(=O)C2CCOCC2)sc1C(=O)N[C@H]1C2CC3CC1C[C@](O)(C3)C2` [Example 9], the IC50 was found to be 11.1 nM.
Regarding `Cc1cc(C(=O)c2cccs2)sc1C(=O)NC1C2CC3CC1CC(O)(C3)C2` (stereo not drawn) [Example 10], the IC50 turned out to be 11.7 nM.
Take `Cc1cc(C(=O)c2cccn2C)sc1C(=O)NC1C2CC3CC1CC(O)(C3)C2` (stereo not drawn) [Example 11]: the IC50 came to 5.1 nM.
Consider `COc1cc(C(=O)c2cccn2C)ccc1C(=O)NC1C2CC3CC1CC(O)(C3)C2` (stereo not drawn) [Example 55], for which the IC50 came to 4.8 nM.
Same read-out and setting: the figure for `CCOc1cc(C(=O)c2cc(F)ccc2F)ccc1C(=O)NC1C2CC3CC1CC(O)(C3)C2` (stereo not drawn) [Example 258] is 3.2 nM; for `CCc1cc(C(=O)c2cccn2C)n(C)c1C(=O)NC1C2CC3CC1CC(O)(C3)C2` (stereo not drawn) [Example 485] it is 18.4 nM; for `CCc1cc(C(=O)c2c(F)cccc2F)n(C)c1C(=O)NC1C2CC3CC1CC(O)(C3)C2` (stereo not drawn) [Example 487] it is 25 nM.
Still for that read-out and setting: the figure for `CCc1cc(C(=O)C(C)(C)c2ccccc2)n(C)c1C(=O)NC1C2CC3CC1CC(O)(C3)C2` (stereo not drawn) [Example 505] is 9.6 nM; for `Cn1c(C(=O)c2ccccc2F)cc(Cl)c1C(=O)NC1C2CC3CC1CC(O)(C3)C2` (stereo not drawn) [Example 514] it is 20.7 nM.
